Reference: patent US20080193376A1, “Methods of Enhanced Detection and Therapy of Inflamed Tissues Using Immune Modulation” (priority 2004, published 2008)

Test system: atherosclerotic plaques
Assay: Intravascular catheter beta probe detection of FDG in rabbit aorta
Assay type: in vivo, New Zealand white rabbits
Excerpt: Male New Zealand white rabbits ranging from 2.5 to 3.0 kilograms in weight (Charles River Breeding Lab) were maintained on a 2% cholesterol-6% peanut oil diet (ICN) for 10 weeks. After 1 week on the peanut oil diet, the abdominal aorta was denuded of endothelium by a modified Baumgartner technique. Briefly, each animal was anesthetized with a mixture of ketamine and xylazine and the right femoral artery was isolated. Subsequently, a 4 F Fogarty embolectomy catheter was introduced via arteriotomy and advanced under fluoroscopic guidance to the level of the diaphragm. The balloon was then inflated to 3 psi (pounds per square inch) above balloon inflation pressure and three passes were made down the abdominal aorta with the inflated catheter. […]
Additionally, FDG was administered intravenously to two additional rabbits. […] Aortic segments at previously assessed sites of plaque and control areas were excised and examined for uptake of FDG by standard well counting.
Sensitivity of the probe was 850±11 cps/μCi (mean±SD). Catheter-determined activity correlated well with well counting measurements, (r=0.89, P<0.001, FIG. 3). Moreover, atherosclerotic regions were readily distinguished from control by catheter mounted beta probe, (11.9±2.1 [n=9, range 9.7±15.3] vs. 4.8±1.9[n=14, range 1.3±7.3], cps in atherosclerotic vs. control regions, respectively, P<0.001; FIG. 4).

OC[C@H]1OC(O)[C@H]([18F])[C@@H](O)[C@@H]1O (some centres unmarked) [FDG, ^18F-Fluorodeoxyglucose]
FDG activity by catheter mounted beta probe (atherosclerotic regions, n=9, FDG intravenously): 11.9±2.1 cps | FDG activity by catheter mounted beta probe (control regions, n=14, FDG intravenously): 4.8±1.9 cps
